Measurements reported in US20250255868A1, “HETEROCYCLIC COMPOUND ACTING AS KRAS G12D INHIBITOR” (Hangzhou Innogate Pharma Co., Ltd., priority 2021, published 2025).

Key:
Type in all cases: cell-based
[1] = system: AGS (human gastric cancer cell line, KRAS G12D mutation); assay: 3D cell proliferation inhibition (CellTiter-Glo), AGS; settings: 168 h, 3D culture, 100 nM compound, seven days, CTG
Protocol: (§1) The Cell Titer-Glo (CTG) method was adopted. Compound was dissolved with DMSO to 10 mM, and then diluted by medium. The upper medium of cells was removed, washed once with DPBS, added 2 mL of trypsin, and placed at 37° C. for a while. After cells were detached from the petri dish, 5 mL fresh medium was added and the suspension cells were centrifuged at 1000 rpm for 5 minutes at room temperature. Resuspend the cells with 5 mL of fresh culture medium, and use Countess™ to count cells. 200 nL compounds were added to a ultra-low attachment 384-well plate, and 40 μL cells were added to each well. After seven days of culture at 37° C., 5% CO2, CTG was added and the signal was recorded using Envision. The Inhibition rate is calculated using the following formula: Inhibition %=(Ave_H-Sample)/(Ave_H-Ave_L)×100%. Ave_H represents the average reading value of DMSO well, Sample represents the average reading value of compound well, and Ave_L represents the average reading value of 10 μM positive control well. The log value of concentration was taken as the X-axis, and the percentage inhibition rate was taken as the Y-axis. The dose-effect curve was fitted with log(inhibitor) vs. response-Variable slope of the analysis software GraphPad Prism 5. The IC50 value or inhibitory rate of each compound on cell proliferation was obtained.

[2] = system: HPAC (human pancreatic cancer cell line, KRAS G12D mutation); assay: 3D cell proliferation inhibition (CellTiter-Glo), HPAC; settings: 168 h, 3D culture, seven days, CTG
Protocol: as §1, with “Compound activity was indicated by AGS (human gastric cancer cell line, KRAS G12D mutation), GP2D (human colon cancer cell line, KRAS G12D mutation), HPAC (human pancreatic cancer cell line, KRAS G12D mutation) and AsPCl (human pancreatic cancer cell line, KRAS G12D mutation) 3D cell proliferation inhibition. The Cell” for “The Cell”

[3] = system: GP2D (human colon cancer cell line, KRAS G12D mutation); assay: 3D cell proliferation inhibition (CellTiter-Glo), GP2D; settings: 168 h, 3D culture, seven days, CTG
Protocol: as §1, with “Compound activity was indicated by AGS (human gastric cancer cell line, KRAS G12D mutation), GP2D (human colon cancer cell line, KRAS G12D mutation), HPAC (human pancreatic cancer cell line, KRAS G12D mutation) and AsPCl (human pancreatic cancer cell line, KRAS G12D mutation) 3D cell proliferation inhibition. The Cell” for “The Cell”, “control well. […]” for “control well. The log value of concentration was taken as the X-axis, and the percentage inhibition rate was taken as the Y-axis. The dose-effect curve was fitted with log(inhibitor) vs. response-Variable slope of the analysis software GraphPad Prism 5. The IC50 value or inhibitory rate of each compound on cell proliferation was obtained.”

[4] = system: AsPC1 (human pancreatic cancer cell line, KRAS G12D mutation); assay: 3D cell proliferation inhibition (CellTiter-Glo), AsPC1; settings: ASPC1, 168 h, 3D culture, seven days, CTG
Protocol: as §1, with “Compound activity was indicated by AGS (human gastric cancer cell line, KRAS G12D mutation), GP2D (human colon cancer cell line, KRAS G12D mutation), HPAC (human pancreatic cancer cell line, KRAS G12D mutation) and AsPCl (human pancreatic cancer cell line, KRAS G12D mutation) 3D cell proliferation inhibition. The Cell” for “The Cell”

SMILES	inhibition at 0.1 µM [1]	IC50 [2]	IC50 [3]	IC50 [4]
Oc1cc(-c2ncc3c(N4CCNC5(CC5)C4)nc(OC[C@@]45CCCN4C[C@H](F)C5)nc3c2F)c2c(F)cccc2c1 [Compound 1]	> 50%			
Oc1cc(-c2ncc3c(N4CC5CCC(C4)N5)nc(OCC45CCCN4CC(=C(F)F)C5)nc3c2F)c2c(F)cccc2c1 (centres unmarked) [Compound 4]	> 50%	< 15 nM	< 0.5 nM	
C#Cc1cccc2cc(O)cc(-c3ncc4c(N5CC6CCC(C5)N6)nc(OCC56CCCN5CC(=C(F)F)C6)nc4c3F)c12 (centres unmarked) [Compound 10]	> 50%	< 10 nM	< 0.5 nM	< 5 nM
C#Cc1c(F)ccc2cccc(-c3ncc4c(N5CC6CCC(C5)N6)nc(OCC56CCCN5CC(=C(F)F)C6)nc4c3F)c12 (centres unmarked) [Compound 12]	> 50%	< 70 nM		
FC(F)=C1CN2CCCC2(COc2nc(N3CC4CCC(C3)N4)c3cnc(-c4cccc5cccc(F)c45)c(F)c3n2)C1 (centres unmarked) [Compound 13]	> 50%			
CCc1c(F)ccc2cccc(-c3ncc4c(N5CC6CCC(C5)N6)nc(OCC56CCCN5CC(=C(F)F)C6)nc4c3F)c12 (centres unmarked) [Compound 14]	> 50%			
C#Cc1c(F)ccc2cc(O)cc(-c3ncc4c(N5CC6CCC(C5)N6)nc(OCC56CCCN5CC(=C(F)F)C6)nc4c3F)c12 (centres unmarked) [Compound 20]		< 5 nM		
C#Cc1c(F)ccc2cc(O)cc(-c3ncc4c(N5C6CCC5CNC6)nc(OC[C@@]56CCCN5C[C@H](F)C6)nc4c3F)c12 [Compound 21]				< 100 nM
C#Cc1c(F)ccc2cc(O)cc(-c3ncc4c(N5CCNC6(CC6)C5)nc(OC[C@@]56CCCN5C[C@H](F)C6)nc4c3F)c12 [Compound 22]				< 150 nM
C#Cc1c(F)ccc2cc(O)cc(-c3ncc4c(N5C6CCC5CNC6)nc(OCC56CCCN5CC(=C(F)F)C6)nc4c3F)c12 (centres unmarked) [Compound 23]		< 50 nM		
C#Cc1c(F)ccc2cc(O)cc(-c3ncc4c(N5CCNC6(CC6)C5)nc(OCC56CCCN5CC(=C(F)F)C6)nc4c3F)c12 (centres unmarked) [Compound 24]		< 70 nM		
C#Cc1c(F)ccc2cc(OC(C)=O)cc(-c3ncc4c(N5CC6CCC(C5)N6)nc(OCC56CCCN5CC(=C(F)F)C6)nc4c3F)c12 (centres unmarked) [Compound 28]		< 70 nM		
C#Cc1c(F)ccc2cc(OP(=O)(O)O)cc(-c3ncc4c(N5CC6CCC(C5)N6)nc(OCC56CCCN5CC(=C(F)F)C6)nc4c3F)c12 (centres unmarked) [Compound 29]		< 10 nM		
C#Cc1c(F)ccc2cc(O)cc(-c3c(Cl)cc4c(N5CC6CCC(C5)N6)nc(OCC56CCCN5CC(=C(F)F)C6)nc4c3F)c12 (centres unmarked) [Compound 30]		< 25 nM		
